Row | melting point [°C] | Structure (SMILES)
1 | 87 to 87.5 | O=S(=O)(Cl)CCc1ccc(Cl)cc1
2 | 182 to 183 | CCCCC(=O)Nc1cccc2c1C1(COc3cc4c(cc31)OCCO4)C(=O)N2C (stereo unspecified)
3 | 119 | Cc1cc2ncc(-c3cccc(-c4ccccc4C#N)c3)n2cn1
4 | 210 | Cc1c(NC(=O)c2ccc(OC[C@@H]3CCCO3)cc2)ccc2c1cc(CN1CCC(C)(O)CC1)n2C
5 | 91 | CC(=O)SCC(Cc1ccccc1)C(=O)NN1CCCC1 (stereo unspecified)
6 | 201 | O=C(Cc1ccc(OCc2cccs2)cc1)NC1(C(=O)O)Cc2ccc(-c3ccc(Cl)cc3)cc2C1 (stereo unspecified)
7 | 67 to 69 | O=C(OC1CCN(Cc2ccc(Cl)cc2)CC1)c1ccc(Cl)cc1
8 | 256 to 258 | Cn1cc(C2=C(c3cn(CCC(=O)O)c4ccccc34)C(=O)NC2=O)c2ccccc21
9 | 176 to 177 | Nc1nc(N)c2ncn(COC(CO)CO)c2n1
10 | 254 | CS(=O)(=O)c1cccc(-c2ccc3cnc(Nc4ccc(C5CCN(CC(N)=O)CC5)cc4)nn23)c1
11 | 107 to 110 | CC(Oc1ccccc1-c1ccc(Cl)c(C(=O)NCC23CC4CC(CC(C4)C2)C3)c1)C(=O)O (stereo unspecified)
12 | 85 to 87 | C=C(CCC)C(=O)c1ccc(OCCCC(=O)O)c(Cl)c1Cl
13 | 126 to 128 | CCCCc1nc2c(N)nc3ccccc3c2n1CCCCS(C)=O (stereo unspecified)
14 | 136 | CC(C)COc1ccc2sc(-c3ccccn3)nc(=O)c2c1
15 | 159 | O=[N+]([O-])c1ccc(Oc2c(Cl)cc(C(F)(F)F)cc2Cl)cc1S(=O)(=O)c1cc[nH]n1
16 | 116 to 118 | CCOC(=O)COc1ccc(S(=O)(=O)c2ccc(C)nc2Nc2c(C)cc(C)cc2C)cc1
17 | 139 to 140 | O=C1Cc2cc(Oc3ccccc3Cl)ccc2N1
18 | 189 to 191 | C(=C\c1cc(/C=C/c2ccc3cc[nH]c3c2)[nH]n1)/c1ccc(N2CCCCC2)cc1

Row | melting point [°C] | Structure (SMILES)
19 | 76 to 80 | CCCCCCCCCCCCCCCCCC(=O)ON1C(=O)c2ccccc2C1=O
20 | 153 to 155 | CCOC(=O)C(=Cc1ccc(-c2nc3ccc(O)cc3o2)cc1)C(=O)OCC
21 | 80.2 | COC(=O)CC(c1ccc(F)cc1)C(C#N)C(=O)OC (stereo unspecified)
22 | 140 to 142 | CCCCCCCCCCCCCCCc1cc2ccc(C(=O)O)cc2[nH]1
23 | 153 to 155 | O=S1(=O)CCN(c2ccc(O)cc2)CC1
24 | 163 to 165 | Cc1ccc(S(=O)(=O)N2N=C(c3ccccc3)CC3CC=CC32)cc1 (stereo unspecified)
25 | 152 | O=C1NOCCN1c1ccc(Cl)c(Cl)c1
26 | 135 to 136 | O=C(c1cccc(C(F)(F)F)c1)c1cc2cccc(Br)c2s1
27 | 266 to 270 | O=C(Nc1c[nH]nc1C(=O)NCCc1ccc(Br)cc1)c1ccccn1
28 | 148 to 150 | CCOC(=O)c1ccc(C(C(N)=O)C(C)c2cc(N)ccc2N2CCCCC2)cc1 (stereo unspecified)
29 | 135 to 137 | C=C1C[C@@H]2C(=O)NC(=O)[C@@H]2C1
30 | 126 to 130 | CCC12CCC3c4ccc(OC)cc4CCC3C1CCC2O (stereo unspecified)
31 | 151 to 153 | CC(C#Cc1cccc(OCc2ccccc2)c1)N(O)C(N)=O (stereo unspecified)
32 | 70 to 80 | COc1ccc(C2(Oc3c(F)c(F)c(F)c(F)c3F)CCN(C)CC2)cc1
33 | 156 to 158 | COc1ccc(C(=O)c2ccc(Cl)c(S(N)(=O)=O)c2)cc1
34 | 291 to 292 | CCCN1c2nc(-c3cn[nH]c3)ccc2NC(=O)c2cccnc21
35 | 181 to 184 | CC1Cc2c(O)cc(C(=O)O)cc2O1 (stereo unspecified)
36 | 118 to 121 | CCS(=O)(=O)NC1CCCCc2ccc(F)cc21 (stereo unspecified)

Continued, compound first:

Row | Structure (SMILES) | melting point [°C]
37 | CC(C)[C@H](O)CP(=O)(O)CCCN | 187 to 189
38 | COc1ccc(C(=O)Oc2cccc3cc4cccc(OC(=O)c5ccc(OC)cc5)c4c(OC(=O)c4ccc(OC)cc4)c23)cc1 | 260
39 | COc1cc(C(=O)c2c(N)sc3c2CCN(C(=O)c2ccc(Cl)cc2)C3)ccc1OC(C)C | 118 to 119
40 | COC(=O)C(=O)C1=C(O)c2ccsc2SC1 | 53 to 56
41 | Cc1cc2ccccc2c(C2CC(=O)C=C(O)C2)c1C (stereo unspecified) | 242
42 | CCn1cc(C(=O)O)c(=O)c2cc(F)c(N3CC(C)C(CN)C3)c(F)c21 (stereo unspecified) | 222 to 224
43 | COc1ccc(CCc2ccc(NC(=O)C(=O)c3sc4ccccc4c3O)cc2)cc1OC | 203
44 | CC1CC2C3CCC4=CC(=O)C=CC4(C)C34OC4CC2(C)C1(O)C(=O)CO (stereo unspecified) | 238 to 240
45 | COC(=S)c1c[nH]c(-c2ccccc2)c1 | 107 to 109
46 | CC(C)C[C@H](NC(=O)C=Cc1ccccc1)C(=O)N[C@@H](Cc1ccccc1)C(=O)CSCc1ccco1 | 141 to 143
47 | CCNC(=O)c1ccc(N2CCN(Cc3cc4c(c(OCC)c3)OC(C)C(=O)N4)CC2)c(Cl)c1 (stereo unspecified) | 187 to 199
48 | COc1ccc(-c2ccc(C(C)=O)cc2N)cc1 | 152 to 154
49 | CCc1nc2c(N)nc3cc(OS(C)(=O)=O)ccc3c2n1CCOc1ccccc1 | 213 to 214
50 | O=C1CCC(N2Cc3c(OCc4ccc(CN5CCSCC5)cc4)cccc3C2=O)C(=O)N1 (stereo unspecified) | 134 to 136
51 | COc1ccc(C(C#Cc2ccccc2)CC(=O)N(C)C)cc1OC1CCCC1 (racemic) | 87 to 89
52 | Cc1csc(-c2ccc(C3=NNC(=O)CC3)cc2)n1 | 266 to 267
53 | CC(C)CC(SCC1CCCCC1)c1c(O)cc(-c2ccccc2)oc1=O (stereo unspecified) | 146 to 148
54 | C[C@]1(COc2ccc(N3CCN(C(=O)c4ccc(OC(F)(F)F)cc4)CC3)cc2)Cn2cc([N+](=O)[O-])nc2O1 | 202 to 203
55 | Clc1ncccc1-c1nc2cccnc2o1 | 140 to 141
56 | Cc1ccc(S(=O)c2cccc(-c3nc(=O)c4ccccc4s3)n2)cc1 (stereo unspecified) | 228
57 | COc1ccc2c(Cc3c(Cl)cncc3Cl)nnc(CO)c2c1 | 190 to 195
58 | CN(CCCNC(=O)c1ccc(OC(F)(F)F)cc1)CCCNC(=O)c1ccc(OC(F)(F)F)cc1 | 110 to 111

Row | Structure (SMILES) | melting point [°C]
59 | COc1ccc(O)c(C2(CO)C(=O)N(Cc3ccc(C(F)(F)F)o3)c3cccc(Cl)c32)n1 (stereo unspecified) | 191 to 193
60 | CCOC(=O)C1(O)CCSc2ccccc21 (stereo unspecified) | 117 to 119
61 | COC(=O)c1sccc1NC(=O)OC(C)(C)C | 88 to 89
62 | COC(=O)CCc1ccc(N2CCN(c3ccc4c(c3)CCC4=O)C2=O)cc1 | 204 to 206
63 | c1ccc(Sc2c[nH]c3ncccc23)cc1 | 188 to 189
64 | CC(c1oc2ccccc2c(=O)c1-c1cccc(F)c1)n1nc(-c2ccc(N)cc2)c2c(N)ncnc21 (stereo unspecified) | 91 to 94
65 | Brc1cccc2nonc12 | 92 to 94
66 | CC(O)C(O)c1nc2c(C(F)(F)F)cccc2c(O)c1C(=O)Nc1nccs1 (stereo unspecified) | 275
67 | CCC(O)c1cc(C(=O)c2ccccc2)no1 (stereo unspecified) | 70 to 71
68 | CC[C@@H](c1ccccc1)N(Cc1ccc(C(=O)OC)cc1)S(=O)(=O)c1ccc(F)cc1 | 107 to 109
69 | COc1nccc2c(=O)n(C)c(N3C=CC(OC4CCN(C5CCC5)CC4)=NC3)nc12 | 199 to 200
70 | CN(C(=O)c1ccccc1OCC(=O)O)c1ccccc1 | 148
71 | CC(C)(CCc1nnn[nH]1)c1ccc(C(=O)Nc2cn3cc(-n4ccnc4)ccc3n2)cc1 | 266 to 267
72 | COc1c(-c2ccc(S(C)(=O)=O)cc2)cnn(-c2ccc(F)c(F)c2)c1=O | 113 to 115
73 | O=c1oc2c(Br)cc(Br)cc2s1 | 104 to 106
74 | O=S(=O)(CC=C1CCC1)c1ccccc1 | 76 to 78
75 | CN(C)CCNC(=O)c1cc(-c2cccc(Cl)c2)c2cc(C(c3ccc(Cl)cc3)c3cncn3C)ccc2n1 (stereo unspecified) | 184
76 | COc1ccc2c(c1)-c1c(OC)ccc3c1C(C2=O)N(C)CC3 (stereo unspecified) | 162 to 164
77 | CCOC(=O)c1cnc2cc(Cl)c(F)cc2c1O | 283 to 290
78 | CC(c1ccccc1)(c1ccc(O)cc1)c1ccc(O)cc1 | 185 to 187
79 | Cc1oc(-c2ccccc2)nc1COc1ccc(COc2ncccc2CC#N)cn1 | 110 to 111
80 | Cc1cc(C)c(C2Cc3cc(NC(=O)CC(C)(C)C)cc(Cc4ccc(C(C)C)cc4)c3O2)cc1CO (stereo unspecified) | 136 to 137

Row | Structure (SMILES) | melting point [°C]
81 | CNC(=O)c1cnc(N2CCOCC2)cc1-c1ccccc1C | 156 to 158
82 | CC(C)NCc1nc(-c2ncn3c2CN(C)C(=O)c2ccccc2-3)no1 | 142 to 144
83 | NC1=NS(=O)N=C1NCCSCc1ccc(CN2CCCCC2)o1 (stereo unspecified) | 161 to 163
84 | CN1CCC(c2cccc3c2C[C@H](NC(=O)c2ccc(C(F)(F)F)cc2)CC3)CC1 | 163 to 166
85 | COC(=O)c1cc(F)c(OC)nc1Nc1ccc(F)cc1F | 160 to 161
86 | CONS(=O)(=O)c1cc(Cl)ccc1Cl | 127 to 128
87 | CNC(=O)OCCOc1cc(-n2c(=O)cc(C(F)(F)F)n(C)c2=O)c(F)cc1Cl | 173 to 175
88 | Oc1cc(OCc2ccccc2)cc(OCc2ccccc2)c1C/C=C/c1ccccc1 | 76 to 78
89 | COc1cc(OC)nc(-n2c(S(C)(=O)=O)nc3ccccc32)n1 | 114 to 117
90 | Cn1cc2c(C3CC3C#N)c(Br)ccc2n1 (stereo unspecified) | 154 to 156
91 | ClCc1cc2ccccc2c(-c2ccccc2)c1CCl | 93
92 | CN1CCC(C#N)(c2ccc(Cl)cc2F)CC1 | 85 to 87
93 | CCCCCC(=O)NC[C@H]1CNC(=O)O1 | 124
94 | CN(C)C(=O)C(Br)Cn1ccc(-c2ccccc2)n1 (stereo unspecified) | 93 to 94
95 | Nc1nc(N)c(-c2cc(Cl)cc(Cl)c2Cl)c(C(F)(F)F)n1 | 226 to 227
96 | COC(=O)c1ccc(N2C3CCC2CN(CC(=O)N2CC=C(c4cccc5ccsc45)CC2)C3)nc1 | 153 to 154
97 | CCOCCn1cc2c(C3C(=O)Nc4ccc(Cl)cc43)nc(NCCN3CCOCC3)nc2n1 (stereo unspecified) | 293 to 294
98 | CCCCS(=O)(=O)C(c1ccc(Cl)cc1)c1ccc(Cl)cc1 | 104 to 106
99 | Cc1c(-c2cncc(CO)c2)ccc2c(=O)c(C(=O)O)cn(C3CC3)c12 | 221 to 223
100 | CC(C)(C)OC(=O)N1CCC(=O)N(CCCC=O)CC1 | 86 to 87
101 | CN1C(=O)C(c2ccc(OC(F)F)cc2)(C2CCCCC2)N=C1N (stereo unspecified) | 178 to 180
